Results on one substance are retold here after patent US8673306B2, “Compositions and methods of use for antibodies of dickkopf-1” (Novartis AG, priority 2006, dated 2014).

Entries after “also recorded” stand apart in the source; their conditions may differ.

Test [1] addresses T1, DKK2 (Homo sapiens, UniProt Q9UBU2).
T1 sequence (Q9UBU2 34-259): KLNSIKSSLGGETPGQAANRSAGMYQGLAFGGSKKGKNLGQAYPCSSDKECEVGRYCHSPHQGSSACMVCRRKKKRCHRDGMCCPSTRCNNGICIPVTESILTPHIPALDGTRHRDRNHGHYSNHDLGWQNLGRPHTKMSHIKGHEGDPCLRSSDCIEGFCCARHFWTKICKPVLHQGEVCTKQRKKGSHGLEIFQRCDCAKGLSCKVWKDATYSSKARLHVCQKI
Briefly: Binding to human DKK2 (preliminary immunoprecipitation). The text has this: Of note, neither DKK2 nor DKK4 conserve the Asparagine residue that is predicted to be targeted for glycosylation in the Cys-2 domain of DKK1.

In test [2] the target is T2, rhDKK1 (recombinant human DKK1) (Homo sapiens, UniProt O94907).
T2 construct: host or cells: HEK / HEK293
T2 sequence (O94907 32-266): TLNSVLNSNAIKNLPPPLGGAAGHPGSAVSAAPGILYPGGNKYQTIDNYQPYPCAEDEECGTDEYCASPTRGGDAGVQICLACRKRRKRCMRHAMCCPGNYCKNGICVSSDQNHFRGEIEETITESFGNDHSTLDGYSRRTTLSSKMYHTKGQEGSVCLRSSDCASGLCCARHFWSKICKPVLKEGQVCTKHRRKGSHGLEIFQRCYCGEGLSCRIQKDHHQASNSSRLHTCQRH
The test is described as follows: Biacore T100 SPR of captured antibody with rhDKK1. It is filed as binding. As to conditions: WT DKK1. As to the method: FIG. 6. METHODS: The binding affinity and kinetics of lead candidates and rhDKK1 (recombinant human DKK1) (Batch BTP7757) are measured using surface plasmon resonance with a Biacore T100 (Biacore, Uppsala, Sweden) instrument containing a CM5 (S) sensor chip (Cat#BR-1006-68). Anti-Human IgG1 Fc (Jackson Immuno Research, Cat#109-006-098) is immobilized onto each flow cell, followed by capture of a lead candidate at an expected capture of about 100 RU. Finally, six concentrations of DKK1 (range 0.195-6.25 nM), with one repeat concentration, is run over the chip. Flow cells are activated for binding of DKK1 for 240 seconds, and disassociation is followed for 30 minutes. The normalized data (background subtracted) are fit to a 1:1 binding with mass transport model using Kinetics analysis in BIA evaluation 1.0 software. This experiment is carried out in triplicate, and data presented are the average of these three experiments with standard deviation.

The test system of test [3] is DKK1 (N-degly). The test is described as follows: Biacore T100 SPR with N-DEGLY DKK1. The class given is binding, human.
The test system of test [4] is PC3M2AC6 xenografts. The test is described as follows: Intratibial growth of PC3M2AC6 xenografts in mice. It is filed as in vivo, mouse. As to conditions: i.v., 3 times a week for 2 weeks. As to the method:
An osteolytic prostate tumor model is adapted from a method by [Kim 2003]. A variant of the osteolytic prostate tumor cell line (PC3M) that stably expresses luciferase (PC3M2AC6) is injected into the tibia of mice. The growth of the tumor is monitored by luciferase while changes in bone are monitored by micro-computerized tomography (micro-CT) and histology.
Control IgG is administered i.v., at 200 μg/mouse/day, q.d., 3 times a week for 2 weeks. Vehicle control (PBS) is administered i.v., q.d., 3 times a week for 2 weeks. Final efficacy data and body weight change are calculated after treatment.

For test [5], the system named is tumor and sham implanted tibias. The test is described as follows: Bone effects in tumor-induced osteolytic model (micro-CT, histology). It is filed as in vivo, mouse. The procedure:
An osteolytic prostate tumor model is adapted from a method by [Kim 2003]. A variant of the osteolytic prostate tumor cell line (PC3M) that stably expresses luciferase (PC3M2AC6) is injected into the tibia of mice. The growth of the tumor is monitored by luciferase while changes in bone are monitored by micro-computerized tomography (micro-CT) and histology. […] Cortical damage is scored from 0=no damage to 3=severe damage. FIG. 12B. Cortical damage in tumor-implanted tibias is manually scored by microCT analysis that are blinded with respect to the study groups. No cortical damage is observed in any of the sham implanted legs. Methods: Female nude mice at age of 12 weeks old are implanted intatibially with 2×10^5 PC-3M2AC6 cells in the left tibia and sham-injection in the right tibia. Treatments started on day 5 post implantation. […] Vehicle (PBS) control is also administered q.d., 3 times a week for 2 weeks. Animals are scanned at day 7, 14, and 18 post tumor implantation using the μ-CT VivaCT40 Scanner (SCANCO, Switzerland). Trabecular bone density (BV/TV) is analyzed as described in methods. An asterisks (*) indicates statistical significant difference from both vehicle and IgG controls (n=12) at the same time point at p<0.05. In FIG. 13, to determine the bone mass, the secondary spongiosa of the tibia is imaged with the Zeiss Imager Z.1 and Axiovision software based on Giemsa stain. The readout is based on the percent calcified bone in the entire field. Every column represents the mean and standard deviation of the stated number of animals. In the PBS, IgG, and anti-DKK1/4 antibody treated groups, only animals with tumor are analyzed. […] Statistic: Dunnett Multiple Comparisons Test One-Way ANOVA. Left legs or right legs compared to the respective leg in the PBS group p<0.05*, p<0.01**, p>0.05 n.s. […] Trabecular bone density (BV/TV) is analyzed as described in methods. * indicates statistical significant difference from all controls including, vehicle, IgG, drill only, and naïve animals at the same time point at p<0.05.

Test [6] has as its system subcutaneous PC3M2AC6 xenografts. Briefly: Subcutaneous PC3M2AC6 xenografts in mice. As to conditions: mouse, in vivo, sc.
Test [7] relates to N-linked deglycosylated rhDKK1. The test is described as follows: ELISA binding to N-linked deglycosylated rhDKK1. Further details: species or system human. As to conditions: PNGase F treated rhDKK1, relative to WT.
The target in test [8] is T3, DKK1/LRP6 binding on cell surface (Homo sapiens, UniProt O94907).
T3 construct: made in house; LRP6 and MESD transiently transfected into HEK293T
T3 sequence (O94907 32-266): T2 sequence (O94907 32-266)
The test is described as follows: DKK1-GFP binding to LRP6 on HEK293T cell surface, fluorescence microscopy. It is filed as cell-based. As to conditions: HEK293T transfected with LRP6 and MESD. As to the method:
However, upon co-transfection of LRP6 with a surface trafficking chaperone protein, MESD, GFP-tagged DKK1 can be detected on the cell surface, illustrating the specific nature of the DKK1/LRP6 interaction.
The ability of MOR04910 to inhibit DKK1/LRP6 binding on cell surface is measured by fluorescence microscopy. HEK293T cells are either mock transfected and transiently transfected with plasmids encoding LRP6 and MESD. Cells are incubated with DKK1-GFP conditioned medium together with anti-lysozyme FAb or anti-DKK1 FAb MOR04910 for 1 hour at 37° C., and examined by fluorescence microscopy. GFP fluorescence reflects DKK1-GFP binding to overexpressed LRP6 on the plasma membrane.

The target in test [9] is DKK3 (Homo sapiens, UniProt Q9UBP4). Briefly: Biacore T100 binding to human DKK3.
Test [10] has as its system C3H10T1/2 (10T1/2) cells. The test is described as follows: Wnt-mediated osteoblast differentiation / alkaline phosphatase secretion of C3H10T1/2 cells. It is filed as cell-based, mouse. As to conditions: Wnt3A conditioned medium. The text has this:
Upon osteoblast differentiation the 10T1/2 cells secrete alkaline phosphatase (AP), a phenomena which can be inhibited by DKK1.

Test [11] relates to tumor cell lines. The test is described as follows: Survival and proliferation of cancer cell lines (Cell Titer Glo). It is filed as cell-based. As to conditions: 100 μg/ml, three days, three serum concentrations. The procedure:
This assay is carried out in three different serum concentrations (serum free, minimal growth, and complete growth). […] Cell line supernants are analyzed for DKK1 expression by ELISA.
On the technique in general: ATP-based viability assays read luminescence as a measure of living cells.

Sequence of DKK3 (Q9UBP4 22-350): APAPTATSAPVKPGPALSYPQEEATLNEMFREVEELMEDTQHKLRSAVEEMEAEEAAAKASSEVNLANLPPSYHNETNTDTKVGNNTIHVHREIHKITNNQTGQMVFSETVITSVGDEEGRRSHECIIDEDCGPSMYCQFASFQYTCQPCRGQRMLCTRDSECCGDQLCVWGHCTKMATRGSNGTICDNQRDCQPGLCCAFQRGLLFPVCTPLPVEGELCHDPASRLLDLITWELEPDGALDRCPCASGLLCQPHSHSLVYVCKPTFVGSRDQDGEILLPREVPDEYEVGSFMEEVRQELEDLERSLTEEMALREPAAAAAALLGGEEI

Turning to “anti-DKK1/4 antibody: neutralizing anti-DKK1/4 antibody sharing the same variable regions as MOR04910 (4910 chains SEQ ID NO: 111/115, BHQ880)”, in test [1], the “binding to DKK2” value is “does not specifically bind DKK2; also recorded: no significant binding to DKK2”. In addition, in test [2], the “Ka” value came to 7.449e+06 M⁻¹ s⁻¹ and the “Kd” value stood at 2.319e-05 s⁻¹. Also, in [3], the “Ka” value came to 1.424e+06 M⁻¹ s⁻¹ and the “Kd” value amounted to 0.0003071 s⁻¹. For the same substance, in [4], the “effect on intratibial tumor growth” value is listed as “trended toward inhibition of tumor growth”. Besides, in test [5] (mouse, in vivo), the “anti-osteolytic activity compared with Zometa” value was “equivalent anti-osteolytic activity as Zometa” and the “tumor-induced cortical bone damage” value is recorded as “inhibits tumor-induced cortical bone damage”. Moreover, the “production of bone / bone volume” value in test [5] (tumor and sham implanted tibias) was “increases the production of bone in both tumor and sham implanted tibias”. Also, in test [6], the “effect on subcutaneous xenograft growth” value is recorded as “non-significant trend toward inhibition”. The “Percent Binding, DKK1 (dyglycosylated)” value in test [7] is recorded as 12-18%. Also, in [8], the “inhibition of DKK1/LRP6 binding on cell surface” value is listed as “blocks DKK1 interactions with LRP6 on cell surfaces”. Further, the “binding to DKK3” value in [9] is “does not bind DKK3”. Also, the “reversal of DKK1 inhibited alkaline phosphatase secretion” value in test [10] is on record as “blocks DKK1 suppression of 10T1/2 differentiation”. The “effect on survival and proliferation of cancer cell lines” value in test [11] is listed as “No significant changes”.
